In patent US20050282824A1, “Substituted pyrimidines as inhibitors of bacterial type III protein secretion systems” (priority 2004, published 2005) one finds IC50 data, which are given here for six compounds.

What all share (format): cell-based
The subject of assay [1] is SPI1 type III protein secretion of SopE'-'Bla by Salmonella enterica. The assay can be described thus: Primary assay: Type III protein secretion of the chimeric SopE'-'Bla polypeptide by Salmonella enterica. The following applies: read-out: SopE IC50(uM). An outline of the steps: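 S. enterica grown under SPI1-favouring conditions was induced to express SopE′-′Bla (SopE secretion signal fused to signal-less TEM-1 β-lactamase) and cultured with or without compound for a set time. Secreted reporter was quantified by colorimetric hydrolysis of cell-impermeant nitrocefin added to the cultures.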

In assay [2] the test system is SPI1 type III protein secretion of SipB by S. enterica. Description: Secondary assay: Type III-dependent protein secretion of the SipB polypeptide by S. enterica. The conditions noted are these: Salmonella enterica, read-out: SipB IC50(uM). An outline of the steps:
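S. enterica cultured with or without inhibitor and induced for SipB production; after growth, cells pelleted and secreted SipB in supernatant measured by immunoblot with anti-SipB mouse monoclonal plus HRP anti-mouse and chemiluminescence, quantified by scanning imager. Inhibition expressed relative to untreated controls.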

In assay [3] the test system is Type III protein secretion of ExoU by P. aeruginosa PA103. The assay can be described thus: Tertiary assay: Type III-dependent secretion of ExoU by P. aeruginosa PA103. The following applies: Pseudomonas aeruginosa, read-out: ExoU IC50(uM). An outline of the steps: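 PA103 grown in deferrated medium with nitrilotriacetic acid to induce Type III secretion, with or without inhibitor, over a prolonged growth period. Supernatant proteins concentrated by ammonium sulfate precipitation, separated by SDS-PAGE, Colloidal Blue-stained; 73.9 kDa ExoU band quantified by imaging relative to untreated controls.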

What is called IC50 is the point on the concentration scale where inhibition reaches its midpoint.

`CN(C)c1ccc(-c2nc(C(=O)N[C@@H](COCc3ccccc3)C(=O)O)cc(N3CCN(c4nccc(C(F)(F)F)n4)CC3)n2)cc1` [Compound 49, (S)-3-Benzyloxy-2-({2-(4-dimethylaminophenyl)-6-[4-(4-trifluoromethylpyrimidin-2-yl)piperazin-1-yl]pyrimidine-4-carbonyl}amino)propionic acid]: the figures for the IC50 in assay [1], in assay [2] and in assay [3] were 5.9 µM, 7.2 µM and 92.6 µM, respectively.
Taken in the same sequence, the figures for `O=C(N[C@@H](COCc1ccccc1)C(=O)O)c1cc(N2CCN(c3nccc(C(F)(F)F)n3)CC2)nc(-c2ccc([N+](=O)[O-])cc2)n1` [Compound 51, (S)-3-Benzyloxy-2-({2-(4-nitrophenyl)-6-[4-(4-trifluoromethylpyrimidin-2-yl)-piperazin-1-yl]pyrimidine-4-carbonyl}amino)propionic acid] were 1.9 µM, 84.5 µM and 55 µM.
For `O=C(NC(Cc1ccc(Cl)cc1)C(=O)O)c1cc(N2CCN(c3nccc(C(F)(F)F)n3)CC2)nc(-c2ccc([N+](=O)[O-])cc2)n1` (stereo not drawn) [Compound 53, 3-(4-Chlorophenyl)-2-({2-(4-nitrophenyl)-6-[4-(4-trifluoromethylpyrimidin-2-yl)-piperazin-1-yl]pyrimidine-4-carbonyl}amino)propionic acid], the results for the 50% inhibitory concentration (IC50) in assay [1], in assay [2] and in assay [3] were 1.2 µM, 84.6 µM and 40.4 µM, respectively.
As for `O=C(NC(Cc1ccc(Cl)cc1)C(=O)O)c1cc(N2CCN(c3nccc(C(F)(F)F)n3)CC2)nc(-c2ccc(F)cc2)n1` (stereo not drawn) [Compound 56, 3-(4-Chlorophenyl)-2-({2-(4-fluorophenyl)-6-[4-(4-trifluoromethylpyrimidin-2-yl)-piperazin-1-yl]pyrimidine-4-carbonyl}amino)propionic acid], the values for the half-inhibitory concentration (IC50) in assay [1], in assay [2] and in assay [3] were 2.2 µM, 4.5 µM and 55.4 µM, respectively.
For `O=C(N[C@@H](COCc1ccccc1)C(=O)O)c1cc(N2CCN(c3nccc(C(F)(F)F)n3)CC2)nc(-c2ccoc2)n1` [Compound 60, (S)-3-Benzyloxy-2-({2-furan-3-yl-6-[4-(4-trifluoromethylpyrimidin-2-yl)piperazin-1yl]-pyrimidine-4-carbonyl}amino)propionic acid], the IC50 in assay [1] was 16.4 µM; in assay [2], 15.6 µM; in assay [3] it was greater than 100 µM.
On the same counts, the results for `O=C(N[C@@H](CSCc1ccccc1)C(=O)O)c1cc(N2CCN(c3nccc(C(F)(F)F)n3)CC2)nc(-c2ccoc2)n1` [Compound 61, (R)-3-Benzylsulfanyl-2-({2-furan-3-yl-6-[4-(4-trifluoromethylpyrimidin-2-yl)-piperazin-1-yl]pyrimidine-4-carbonyl}amino)propionic acid] are 10.2 µM, 43.2 µM and greater than 100 µM.
